Measurements taken from patent publication US10066004B2 (ARIZONA CANCER THERAPEUTICS, LLC, priority 2010, dated 2018).
No end group written: not given here.

Experiments:
MDA-MB-468 cells [1] = settings: for effect on cell viability (MTT): MDA-MB-468, 3 days of treatment (FIG. 6); for inhibitor effect on cell survival after three days of treatment: MDA-MB-468, 20 uM peptide (FIG. 1)
Procedure: Inhibitor peptides were evaluated on their ability to inhibit growth of triple-negative breast cancer cells MDA-MB-468 (20 uM peptide treatment). […] SEQ ID NO: 13 is […] SEQ ID NO: 14 is […] SEQ ID NO: 15 is […] SEQ ID NO: 16 is […] SEQ ID NO: 17 is […] SEQ ID NO: 18 is […] SEQ ID NO: 19 is […] SEQ ID NO: 20 is […] SEQ ID NO: 21 is […] SEQ ID NO: 22 is […] SEQ ID NO: 23 is […] SEQ ID NO: 24 is […] SEQ ID NO: 25 is […]
Peptide designations are indicated in the right column. Changes from EJ1 in EJ2-11 are denoted in the second column from the right. (d-j) Cell lines were treated daily with 20 μmol/l EJ1, 20 μmol/l CP, or vehicle (water) for 3 days unless otherwise noted, and cell viability was determined by the MTT assay. Growth rates for vehicle-treated cells were set to 100%, and CP and EJ1 rates were adjusted accordingly. *P<0.05, **P<0.01, ***P<0.001 (Student's t-test). Error bars, mean±SD. (From Hart et al., 2013, Molecular Therapy 21(11):1996-2007, the disclosure of which is incorporated herein in its entirety.)
To do this, we created cell-penetrating peptides to act as dominant-negative “decoys,” thereby inhibiting endogenous jxm interactions. Peptides specific for jxm subdomains were synthesized downstream of the protein transduction domain-4 (PTD4; FIG. 6). Next, the effect of peptide treatment on cell viability was analyzed on the breast cancer cell line MDA-MB-468 by MTT (3-[4,5-dimethylthiazol-2-yl]-2,5-diphenyl tetra-zolium bromide) analysis after 3 days of treatment.
Protein lysate preparation, immunoprecipitation, and western blotting were performed as described previously. For cross-linking, cells were first incubated according to manufacturer instructions with 3 μmol/l DMS, a membrane-permeable, noncleavable, cross-linking agent (Thermo Scientific, Waltham, Mass.). Cells were analyzed both by the MTT assay following manufacturer's instructions (Sigma) and using a U-Quant Spectrophotometer (Bio-TEK Instruments, Winooski, Vt.).

MDA-MB-468 cells [2] = test: MTT viability, EJ1 in combination with pathway inhibitors or ROS scavenger; assay type: cell-based; settings: MDA-MB-468, 20 μmol/l EJ1 plus inhibitor
Procedure: (a) MDA-MB-468 cells were treated with either 20 μmol/l CP (A-D) or 20 μmol/l EJ1 (E-H) for 0 minutes (A, E), 15 minutes (B, F), 60 minutes (C, G), or 16 hours (D, H). Arrows indicate membrane blebs and arrowheads indicate intracellular vacuoles. (b) BxPC3 cells were serum starved overnight, then treated with 20 μmol/l EJ1 and 50 ng/ml Texas-Red-labeled EGF, and imaged for 30 minutes with an Olympus IX71 deconvolution microscope. Panels A-F are bright field images, D′-F′ are red channel images (Texas-Red-labeled EGF). Arrowheads indicate locations of EGF accumulation on membrane protrusions. (c) Diagram depicts Ca^2+/CaM-regulated signaling pathway, and inhibitors acting at different targets are indicated. (d) MDA-MB-468 cells were pretreated with 50 μmol/l W-13 (D-F), 10 μmol/l ML-7 (G-I), or 10 μmol/l Y-27632 (J-L) in complete medium at 37° C. for 30 minutes and then treated with vehicle, 20 μmol/l CP, or 20 μmol/l EJ1 in combination with W-13, ML-7, or Y-27632 in complete medium at 37° C. for 15 minutes. Images represent the bright field images. Arrows indicate membrane blebbing. (e) MDA-MB-468 cells were untreated (UNTX) or treated with water (Vehicle), 20 μmol/l EJ1, 10 μmol/l Y-27632, or 10 μmol/l ML-7 alone or EJ1 in combination with Y-27632 or ML-7, and the viability was assessed by the MTT assay. **P<0.01 (Student's t-test). Error bars, mean±SD. (f) MDA-MB-468 cells were either in serum-free medium (SF) or stimulated with 100 ng/ml EGF (EGF) and then incubated with water (Vehicle), 20 μmol/l CP, 20 μmol/l EJ1, 2 μmol/l ionomycin, 50 μmol/l W-13, 100 μmol/l KN-93, or EJ1 in combination with ionomycin for 15 minutes. Lysates were immunoblotted with antibodies as indicated. (g) Stable, neomycin-selected NIH3T3 cell lines were created, expressing either Rac1 wild-type (Rac1-WT) or Rac1 constitutively active mutant (Rac1-Q61L). Cells were treated with water (Vehicle), 20 μmol/l CP, or 20 μmol/l EJ1, and the viability was assessed by MTT. ***P<0.001 (Student's t-test). Error bars, mean±SD.
(a) MDA-MB-468 cells were incubated in serum-free media with 200 nmol/l MitoTracker Red CMXRos and 5 μg/ml Hoechst 33342 nuclear stain, followed by either 20 μmol/l CP (A-B′) or 20 μmol/l EJ1 (C-D′), and imaged at 0 minutes (A, A′; and C, C′) or at 5 minutes (B, B′; and D, D′). (b) MDA-MB-468 cells were incubated with 1 μmol/l JC-1, followed by 20 μmol/l CP, 20 μmol/l EJ1, or 50 μmol/l CCCP. Results were calculated as the ratio of the 514/590 nm to 514/529 nm fluorescences and the ratio for CP-treated sample was set as 1. *P<0.05, Student's t-test. Error bars, mean±SD. […] Cells were then sorted by flow cytometer and analyzed by Cellquest Pro 4.0 software. The results are expressed as the percentage of DCFH fluorescence-positive cells. *P<0.05, Student's t-test. […]

MDA-MB-468 cells [3] = test: Membrane blebbing / cell morphology, bright field imaging; assay type: cell-based; settings: for inhibition of EJ1-induced membrane blebbing: 50 μmol/l W-13, 10 μmol/l ML-7, 10 μmol/l Y-27632 with 20 μmol/l EJ1
Procedure: (a) MDA-MB-468 cells were treated with either 20 μmol/l CP (A-D) or 20 μmol/l EJ1 (E-H) for 0 minutes (A, E), 15 minutes (B, F), 60 minutes (C, G), or 16 hours (D, H). […] (b) BxPC3 cells were serum starved overnight, then treated with 20 μmol/l EJ1 and 50 ng/ml Texas-Red-labeled EGF, and imaged for 30 minutes with an Olympus IX71 deconvolution microscope. Panels A-F are bright field images, D′-F′ are red channel images (Texas-Red-labeled EGF). […] (c) Diagram depicts Ca^2+/CaM-regulated signaling pathway, and inhibitors acting at different targets are indicated. (d) MDA-MB-468 cells were pretreated with 50 μmol/l W-13 (D-F), 10 μmol/l ML-7 (G-I), or 10 μmol/l Y-27632 (J-L) in complete medium at 37° C. for 30 minutes and then treated with vehicle, 20 μmol/l CP, or 20 μmol/l EJ1 in combination with W-13, ML-7, or Y-27632 in complete medium at 37° C. for 15 minutes. Images represent the bright field images. […] Error bars, mean±SD. (f) MDA-MB-468 cells were either in serum-free medium (SF) or stimulated with 100 ng/ml EGF (EGF) and then incubated with water (Vehicle), 20 μmol/l CP, 20 μmol/l EJ1, 2 μmol/l ionomycin, 50 μmol/l W-13, 100 μmol/l KN-93, or EJ1 in combination with ionomycin for 15 minutes. Lysates were immunoblotted with antibodies as indicated. […] Error bars, mean±SD. (From Hart et al., 2013, Molecular Therapy 21(11):1996-2007, the disclosure of which is incorporated herein in its entirety.)
Ca^2+/CaM signaling regulates many different cellular events, such as membrane dynamics, cell survival, mitochondrial function, and motility. We began by evaluating whether EJ1 was affecting membrane dynamics by treating MDA-MB-468 cells with either CP (FIG. 8) or EJ1 (FIG. 8) and examining cell morphology. […] Ca^2+/CaM signaling regulates many different downstream pathways, such as CaMKII and MLCK. CaMKII regulates cell proliferation, whereas MLCK phosphorylates myosin light chain (MLC) and regulates actinomyosin reorganization during membrane blebbing (as depicted in FIG. 8). To investigate whether EJ1-induced membrane blebbing was through the MLCK pathway, MDA-MB-468 cells were treated with vehicle, CP, or EJ1 alone (A-C) or in combination with the CaM inhibitor W-13 or the MLC phosphorylation inhibitors ML-7 and Y-27632 (D-L).

[4] = test system: patient-derived glioma lines (BT145, BT147, GB16, GB7, GB42); test: Viability of patient-derived GBM cells; assay type: cell-based
Source text: FIG. 13A and FIG. 13B show treatment of patient-derived GBM cells with various EGFR inhibitor peptides.
EGFR is amplified or mutated in more than 40% of glioblastoma multiforme (GBM) tumors. Referring to FIG. 13-14, inhibitor peptides of the present invention were used to treat GBM cells and tumors.

## YARAAARQARAFMRQRHIVRQRTLRQLLQERE [EJ11]
MDA-MB-468 cells [1]
  effect on cell viability (MTT): only marginally blocked the antiproliferative effects of EJ1

## C[C@@H](N)[C@H]1CC[C@H](C(=O)Nc2ccncc2)CC1 [Y-27632]
MDA-MB-468 cells [2]
  effect of co-treatment on EJ1-induced loss of cell viability (MTT): significantly reduce the effects of EJ1
MDA-MB-468 cells [3]
  inhibition of EJ1-induced membrane blebbing: completely inhibited

## YARAAARQARAIVRKRTLRRLLQERE (Artificial peptide sequence related to EGFR juxtamembrane sequence) [EJ3]
MDA-MB-468 cells [1]
  effect on cell viability (MTT): partial reduction

## control peptide: control peptide compared to stapled EJ1 on patient-derived glioma lines (YARAAARQARAFMRDRHIVRDRTLRDLLQERE; Artificial peptide sequence related to EGFR juxtamembrane sequence) [reference compound]
[4]; BT145 and BT147 (FIG. 13A)
  cell viability of patient-derived glioma lines: no effect on cell viability
[4]; GB16, GB7, GB42 and BT147, 24 hr treatment (FIG. 13B)
  cell viability of patient-derived glioma lines: no effect on cell viability

## YARAAARQARALLQERELVEPLT (Artificial peptide sequence related to EGFR juxtamembrane sequence) [EJ6]
MDA-MB-468 cells [1]
  effect on cell viability (MTT): No antiproliferative effect

## COc1cc2ncnc(Nc3cccc(Cl)c3)c2cc1OC [AG1478]
MDA-MB-468 cells [3]; EJ1 20 μmol/l, 15 minutes
  membrane blebbing: No membrane blebbing was observed

## YARAAARQARAFMRDRHIVRDRTLRDLLQERE (Artificial peptide sequence related to EGFR juxtamembrane sequence) [EJ10]
MDA-MB-468 cells [1]
  inhibitor effect on cell survival after three days of treatment: almost no inhibitor effect
  effect on cell viability (MTT): completely ablated the effects on viability

## YARAAARQARARDRHIVRDRTLRD (Artificial peptide sequence related to EGFR juxtamembrane sequence) [nlsCPv4]
MDA-MB-468 cells [1]
  inhibitor effect on cell survival after three days of treatment: almost no inhibitor effect

## NCCCCNS(=O)(=O)c1ccc2c(Cl)cccc2c1 [W-13]
MDA-MB-468 cells [3]
  inhibition of EJ1-induced membrane blebbing: completely inhibited

## YARAAARQARARTLRRLLQERE (Artificial peptide sequence related to EGFR juxtamembrane sequence) [EJ5]
MDA-MB-468 cells [1]
  effect on cell viability (MTT): partial reduction

## Cn1cnc(=N)c2[nH]cnc21 [3-MA]
MDA-MB-468 cells [2]
  effect of co-treatment on EJ1-induced loss of cell viability (MTT): not able to rescue

## YARAAARQARAFMRRRHIVRKRTL (Artificial peptide sequence related to EGFR juxtamembrane sequence) [EJ2]
MDA-MB-468 cells [1]
  effect on cell viability (MTT): partial reduction

## YARAAARQARARRRHIVRKRTLRR (Artificial peptide sequence related to EGFR juxtamembrane sequence) [EJ4]
MDA-MB-468 cells [1]
  effect on cell viability (MTT): No antiproliferative effect

## O=S(=O)(c1cccc2c(I)cccc12)N1CCCNCC1 [ML-7]
MDA-MB-468 cells [2]
  effect of co-treatment on EJ1-induced loss of cell viability (MTT): significantly reduce the effects of EJ1
MDA-MB-468 cells [3]
  inhibition of EJ1-induced membrane blebbing: completely inhibited
